Source: ChEMBL document CHEMBL3400083, “Effect of the tyrosinase inhibitor (S)-N-trans-feruloyloctopamine from garlic skin on tyrosinase gene expression and melanine accumulation in melanoma cells” (Bioorg Med Chem Lett, 2015)
One block for each compound: values may come before it. Active and inactive are the calls of the source. No cut-off for these calls is given here.

Experiments:
[1] = Cytotoxicity against mouse B16F10 cells assessed as cell viability at 3 uM after 72 hrs by MTT assay (reference value: 99.6 +/- 3.5%); assay type: cell-based, B16-F10; settings: read-out: Activity
[2] = target: T1, Tyrosinase (Mus musculus) (UniProt P11344); test: Inhibition of tyrosinase in mouse B16F10 cells assessed as reduction in alpha-MSH-induced melanin content at 96 uM (reference value: 98.5 +/- 4.7%); assay type: cell-based; settings: B16-F10
T1 sequence (whole entry): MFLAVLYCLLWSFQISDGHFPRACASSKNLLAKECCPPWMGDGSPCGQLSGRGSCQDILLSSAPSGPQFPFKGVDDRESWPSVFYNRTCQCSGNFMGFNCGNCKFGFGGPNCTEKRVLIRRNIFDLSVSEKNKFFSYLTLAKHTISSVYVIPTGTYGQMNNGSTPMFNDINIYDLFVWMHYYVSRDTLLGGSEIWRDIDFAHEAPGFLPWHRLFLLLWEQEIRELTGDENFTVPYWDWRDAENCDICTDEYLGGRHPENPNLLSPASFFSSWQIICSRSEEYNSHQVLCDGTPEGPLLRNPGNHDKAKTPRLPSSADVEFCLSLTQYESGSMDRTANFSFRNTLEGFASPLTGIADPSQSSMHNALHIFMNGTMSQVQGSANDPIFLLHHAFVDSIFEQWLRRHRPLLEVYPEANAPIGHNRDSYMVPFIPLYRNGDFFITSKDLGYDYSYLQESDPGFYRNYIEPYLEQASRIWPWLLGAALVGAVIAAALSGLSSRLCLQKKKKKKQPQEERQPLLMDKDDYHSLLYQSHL

[3] = Cytotoxicity against mouse B16F10 cells assessed as cell viability at 1.5 uM after 72 hrs by MTT assay (reference value: 99.6 +/- 3.5%); assay type: cell-based, B16-F10; settings: read-out: Activity
[4] = target: T1, Tyrosinase (Mus musculus); test: Inhibition of tyrosinase in mouse B16F10 cells assessed as reduction in alpha-MSH-induced melanin content at 48 uM (reference value: 98.5 +/- 4.7%); assay type: cell-based; settings: B16-F10
[5] = Inhibition of tyrosinase protein expression in alpha-MSH-stimulated mouse B16F10 cells at 48 to 96 uM incubated for 1 hr prior to alpha-MSH challenge measured after 24 hrs by Western blotting analysis; assay type: functional, cell-based; settings: B16-F10
[6] = Cytotoxicity against mouse B16F10 cells assessed as cell viability at 12 uM after 72 hrs by MTT assay (reference value: 99.6 +/- 3.5%); assay type: cell-based, B16-F10; settings: read-out: Activity
[7] = Cytotoxicity against mouse B16F10 cells assessed as cell viability at 48 uM after 72 hrs by MTT assay (reference value: 99.6 +/- 3.5%); assay type: cell-based, B16-F10; settings: read-out: Activity
[8] = target: T1, Tyrosinase (Mus musculus); test: (§1) Inhibition of tyrosinase in mouse B16F10 cells assessed as reduction in alpha-MSH-induced melanin content; assay type: cell-based; settings: B16-F10
Tyrosinase [9] = target: T2, Tyrosinase (Mus musculus, UniProt P11344); test: as §1; assay type: cell-based, B16-F10
T2 sequence (P11344 whole entry): T1 sequence (whole entry)

[10] = Cytotoxicity against mouse B16F10 cells assessed as cell viability at 96 uM after 72 hrs by MTT assay (reference value: 99.6 +/- 3.5%); assay type: cell-based, B16-F10; settings: read-out: Activity
[11] = Cytotoxicity against mouse B16F10 cells assessed as cell viability at 6 uM after 72 hrs by MTT assay (reference value: 99.6 +/- 3.5%); assay type: cell-based, B16-F10; settings: read-out: Activity
[12] = Cytotoxicity against mouse B16F10 cells assessed as cell viability at 24 uM after 72 hrs by MTT assay (reference value: 99.6 +/- 3.5%); assay type: cell-based, B16-F10; settings: read-out: Activity
B16-F10 = test: Inhibition of tyrosinase mRNA expression in alpha-MSH-stimulated mouse B16F10 cells at 48 to 96 uM incubated for 1 hr prior to alpha-MSH challenge measured after 24 hrs by RT-PCR analysis; assay type: functional, cell-based
[13] = target: T1, Tyrosinase (Mus musculus); settings: B16-F10, 100 uM
Description: Inhibition of tyrosinase in mouse B16F10 cells assessed as reduction in alpha-MSH-induced melanin content at 100 uM

Tyrosinase [14] = target: T3, Tyrosinase (Homo sapiens, UniProt P14679); test: Inhibition of tyrosinase (unknown origin)
T3 sequence (P14679 whole entry): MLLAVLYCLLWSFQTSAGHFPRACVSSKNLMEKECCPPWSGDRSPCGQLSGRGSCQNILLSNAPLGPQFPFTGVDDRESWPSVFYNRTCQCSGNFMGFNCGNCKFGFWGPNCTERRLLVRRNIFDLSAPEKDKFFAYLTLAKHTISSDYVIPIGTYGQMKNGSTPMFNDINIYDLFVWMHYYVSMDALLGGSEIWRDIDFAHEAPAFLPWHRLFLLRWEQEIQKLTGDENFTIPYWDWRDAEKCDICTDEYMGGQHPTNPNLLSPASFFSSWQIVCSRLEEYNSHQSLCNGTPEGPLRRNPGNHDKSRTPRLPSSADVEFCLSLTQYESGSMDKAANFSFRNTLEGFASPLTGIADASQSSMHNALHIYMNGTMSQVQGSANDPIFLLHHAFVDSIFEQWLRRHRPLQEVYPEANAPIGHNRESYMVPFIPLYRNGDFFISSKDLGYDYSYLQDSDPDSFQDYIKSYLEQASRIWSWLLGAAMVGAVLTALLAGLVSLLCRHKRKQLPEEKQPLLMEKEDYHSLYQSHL

inhibition [2]: 106% | inhibition [4]: 122% | inhibition [8]: Dose-dependent effect | IC50 (Tyrosinase [9]): > 96 µM
Compound: COc1cc(/C=C/C(=O)NC[C@@H](O)c2ccc(O)cc2)ccc1O
viability at 72 h, 3 µM [1]: 105% | viability at 72 h, 1.5 µM [3]: 102% | inhibition [5]: Active | viability at 72 h, 12 µM [6]: 99.4% | viability at 72 h, 48 µM [7]: 97.2% | viability at 72 h, 96 µM [10]: 96% | viability at 72 h, 6 µM [11]: 97.8% | viability at 72 h, 24 µM [12]: 98.3% | inhibition (B16-F10): Active

inhibition [13]: 146%
Compound: OC[C@H]1O[C@@H](Oc2ccc(O)cc2)[C@H](O)[C@@H](O)[C@@H]1O

IC50 (Tyrosinase [14]): 54.2 µM
Compound: CC(C)(C)c1cc(O)ccc1O [E319]
